In the NIST ThermoML archive (doi:10.1021/je1003065):

Assay: mn = molality of the nth substance listed, in mol/kg
Settings: Liquid, Vibrating tube method

[Br-].[Li+] [lithium bromide] + CCO
Settings	mass density [kg/m3]
273.09 K, 4590 kPa, m1 = 2.272	943.92
273.13 K, 30024 kPa, m1 = 0.2335	841.53
273.14 K, 5012 kPa, m1 = 0.2335	824.8
273.14 K, 29954 kPa, m1 = 2.833	990.17
273.14 K, 49926 kPa, m1 = 2.833	1001.06
273.14 K, 80014 kPa, m1 = 0.2335	868.58
273.15 K, 1023 kPa, m1 = 0.2335	821.76
273.15 K, 1024 kPa, m1 = 0.9499	866.06
273.15 K, 1024 kPa, m1 = 2.833	971.83
273.15 K, 1537 kPa, m1 = 3.368	1000.06
273.15 K, 2048 kPa, m1 = 1.462	896.66
273.15 K, 5002 kPa, m1 = 2.833	974.56
273.15 K, 5021 kPa, m1 = 0.9499	868.77
273.15 K, 10002 kPa, m1 = 0.2335	828.53
273.15 K, 10002 kPa, m1 = 0.9499	872.07
273.15 K, 10177 kPa, m1 = 2.272	947.5
273.15 K, 19956 kPa, m1 = 2.833	984.22
273.15 K, 20031 kPa, m1 = 0.2335	835.19
273.15 K, 20031 kPa, m1 = 0.9499	878.51
273.15 K, 30045 kPa, m1 = 0.9499	884.65
273.15 K, 39945 kPa, m1 = 0.2335	847.51
273.15 K, 39974 kPa, m1 = 2.833	995.79
273.15 K, 40015 kPa, m1 = 0.9499	890.49
273.15 K, 49923 kPa, m1 = 0.2335	853.22
273.15 K, 50027 kPa, m1 = 0.9499	896.06
273.15 K, 59570 kPa, m1 = 2.272	975.51
273.15 K, 60021 kPa, m1 = 2.833	1006.15
273.15 K, 60029 kPa, m1 = 0.9499	901.35
273.15 K, 69980 kPa, m1 = 2.272	980.49
273.15 K, 70002 kPa, m1 = 0.9499	906.34
273.15 K, 70003 kPa, m1 = 0.2335	863.78
273.15 K, 70035 kPa, m1 = 2.833	1010.98
273.15 K, 79857 kPa, m1 = 2.272	985.04
273.15 K, 79954 kPa, m1 = 0.9499	911.03
273.15 K, 89925 kPa, m1 = 2.272	989.55
273.15 K, 89935 kPa, m1 = 0.9499	915.46
273.15 K, 89956 kPa, m1 = 2.833	1020.12
273.15 K, 90023 kPa, m1 = 0.2335	873.07
273.15 K, 99945 kPa, m1 = 0.2335	877.21
273.15 K, 99986 kPa, m1 = 0.9499	919.63
273.15 K, 99986 kPa, m1 = 2.833	1024.57
273.16 K, 5195 kPa, m1 = 1.462	898.75
273.16 K, 10032 kPa, m1 = 2.833	977.92
273.16 K, 20027 kPa, m1 = 3.368	1011.76
273.16 K, 29980 kPa, m1 = 3.368	1017.69
273.16 K, 39977 kPa, m1 = 3.368	1023.39
273.16 K, 49994 kPa, m1 = 0.5972	875.26
273.16 K, 59884 kPa, m1 = 0.5972	880.54
273.16 K, 59985 kPa, m1 = 0.2335	858.67
273.16 K, 69990 kPa, m1 = 0.5972	885.63
273.16 K, 80061 kPa, m1 = 2.833	1015.64
273.16 K, 100090 kPa, m1 = 2.272	994.02
273.17 K, 1948 kPa, m1 = 2.272	941.72
273.17 K, 9742 kPa, m1 = 1.462	901.73
273.17 K, 10114 kPa, m1 = 3.368	1005.6
273.17 K, 19964 kPa, m1 = 0.5972	857.46
273.17 K, 20349 kPa, m1 = 2.272	953.97
273.17 K, 29947 kPa, m1 = 2.272	959.72
273.17 K, 29993 kPa, m1 = 0.5972	863.7
273.17 K, 39918 kPa, m1 = 0.5972	869.58
273.17 K, 49964 kPa, m1 = 2.272	970.63
273.17 K, 49974 kPa, m1 = 3.368	1028.82
273.17 K, 80091 kPa, m1 = 0.5972	890.43
273.17 K, 89924 kPa, m1 = 3.368	1047.9
273.17 K, 89993 kPa, m1 = 0.5972	894.84
273.17 K, 99951 kPa, m1 = 3.368	1052.03
273.18 K, 1306 kPa, m1 = 0.5972	845.06
273.18 K, 4686 kPa, m1 = 0.5972	847.38
273.18 K, 4965 kPa, m1 = 3.368	1002.3
273.18 K, 9917 kPa, m1 = 0.5972	850.91
273.18 K, 20115 kPa, m1 = 1.462	908.3
273.18 K, 29966 kPa, m1 = 1.462	914.27
273.18 K, 49922 kPa, m1 = 1.462	925.55
273.18 K, 60091 kPa, m1 = 1.462	930.87
273.18 K, 60277 kPa, m1 = 3.368	1034.14
273.18 K, 69993 kPa, m1 = 1.462	935.78
273.18 K, 69994 kPa, m1 = 3.368	1038.9
273.18 K, 79725 kPa, m1 = 3.368	1043.43
273.18 K, 80129 kPa, m1 = 1.462	940.52
273.18 K, 89963 kPa, m1 = 1.462	944.86
273.18 K, 100098 kPa, m1 = 0.5972	899.04
273.19 K, 39973 kPa, m1 = 1.462	920.07
273.19 K, 40359 kPa, m1 = 2.272	965.49
273.2 K, 99708 kPa, m1 = 1.462	948.89
293.12 K, 9790 kPa, m1 = 1.462	886.75
293.13 K, 1999 kPa, m1 = 1.462	881.23
293.13 K, 5005 kPa, m1 = 1.462	883.38
293.13 K, 19962 kPa, m1 = 1.462	893.68
293.13 K, 29997 kPa, m1 = 1.462	900.21
293.13 K, 30014 kPa, m1 = 0.2335	827.08
293.13 K, 40468 kPa, m1 = 1.462	906.69
293.13 K, 49901 kPa, m1 = 1.462	912.25
293.13 K, 59950 kPa, m1 = 3.368	1019.25
293.14 K, 5014 kPa, m1 = 0.2335	809.13
293.14 K, 10097 kPa, m1 = 3.368	989.9
293.14 K, 19953 kPa, m1 = 2.833	969.14
293.14 K, 49968 kPa, m1 = 2.833	986.92
293.14 K, 49985 kPa, m1 = 0.2335	839.79
293.14 K, 59817 kPa, m1 = 0.5972	867.48
293.14 K, 60137 kPa, m1 = 1.462	917.97
293.14 K, 69946 kPa, m1 = 3.368	1024.25
293.14 K, 69979 kPa, m1 = 0.5972	872.97
293.14 K, 69979 kPa, m1 = 1.462	923.18
293.14 K, 79675 kPa, m1 = 0.5972	877.88
293.15 K, 1003 kPa, m1 = 0.2335	805.64
